Where two headings read alike, the source gives them in different places.
Tests used:
Type in all cases: biochemical
[1] = biological target: T1, Human PI3K beta (Homo sapiens, UniProt P42338); assay: Human PI3K beta enzyme assay (HTRF); conditions: for IC50: read-out: PI3 Kbeta IC50
T1 construct: His (N); host or cells: SF9 insect cells (baculovirus)
From the text: (§1) The catalytic subunits of PI3Ks are cloned into either pDEST8(p110 alpha) or pDEST10(p110beta, p110delta, and p110gamma) as N-terminal His tagged fusion proteins using the Gateway system (Invitrogen, catalog#11804-010 for pDEST8 and 11806-015 for pDEST10). The sequences are verified before recombinant protein expression using the Baculovirus Expression System with Gateway® Technology. The accession numbers for the subunits are as follows: • p110 alpha (GB:U79143) • p110beta (GB: S67334) • p110delta (GB: U86453) • p110gamma (GB: X83368) • The regulatory subunits of PI3Ks are cloned into pDEST8 as un-tagged protein using the Gateway system (Catalog#11804-010). The sequences are verified before recombinant protein expression using the Baculovirus Expression System with Gateway® Technology. The accession numbers for the subunits are as following: • p85 alpha (GB: BC030815) • p101(GB: AB028925) • VPS34 (accession number GB:BC033004) is cloned into pDEST20—Thombin as N-terminal GST tagged fusion proteins using the Gateway system (Invitrogen, catalog#11804-013). The sequences are verified before recombinant protein expression using the Baculovirus Expression System with Gateway® Technology.
(§2) For expression of the p110 complexes, the p85 (MOI of 4) is co-infected with p110 alpha, beta, and delta respectively (1MOI) in SF9 cells and harvested at 60 hours post co-infection. P110 gamma was infected at 1 MOI and harvested at 60 hours post infection.
(§3) For purification, PI3Ks are purified by Ni-NTA Agarose (Qiagen #30250) followed by Mono Q 10/100 GL (Ge Healthcare #17-5167-01). VPS34 is purified by Glutathione Sepharose 4 Fast Flow (GE Healthcare #17-5132-03) followed by HiTrap Q (GE Healthcare #17-1153-01).
(§4) 0.5 uL compounds in DMSO are added to wells of a 384 well microtitre plate (Corning 3575). At room temperature: 10 ul PI3K reaction buffer (50 mM Hepes, 5 mM DTT, 150 mM NaCl, 10 mM beta-glycerophosphate, 10 mM MgCl2, 0.25 mM sodium cholate and 0.001% CHAPS, pH 7.00) containing ATP (25 uM, Promega) is added followed immediately by 10 ul PI3K reaction buffer containing di-C8 P1(4,5)P2 (3.5 uM, CellSignals) and PI3Kalpha (0.4875 nM, Millennium Protein Sciences Group) and the mixture is incubated with shaking at room temperature for 30 minutes. Then 5 ul PI3K stop mix (50 mM Hepes, 5 mM DTT, 150 mM NaCl, 0.01% Tween-20, 15 mM EDTA and 25 nM biotin-PI(3,4,5)P3 (Echelon) is added to quench the reaction followed immediately by addition of 5 ul HTRF detection mix (50 mM Hepes, 5 mM DTT, 150 mM NaCl, 0.01% Tween-20, 40 mM KF, 1.0 nM GST:GRP-1 PH domain (Millennium Protein Sciences Group), 15 nM Streptavidin-XL (CisBio) and 0.375 nM anti-GST Eu++ antibody (CisBio) at pH 7.00). The plates are then incubated for 1 hour at room temperature with shaking and then read on a BMG PheraStar Plus reader.
(§5) 2) Human PI3K beta, delta and gamma isoforms are tested using the procedure described for PI3K alpha above but with the following changes: PI3K beta (5.25 nM), PI3K delta (0.75 nM) and PI3K gamma (5 nM). All isoforms supplied by Millennium Protein Science Group.
(§6) For the assay methods described above, test compound percent inhibition, at various concentrations, is calculated relative to control (DMSO and EDTA) treated samples. Compound concentration versus percent inhibition curves are fitted to generate IC50 values. One skilled in the art will appreciate that the values generated either as percentage inhibition at a single concentration or IC50 values are subject to experimental variation.

[2] = biological target: T2, Human PI3K alpha (Homo sapiens, UniProt P42336); assay: Human PI3K alpha enzyme assay (HTRF); conditions: for IC50: read-out: PI3Kalpha IC50
T2 construct: His (N); host or cells: SF9 insect cells (baculovirus)
From the text: as §1, §2, §3
1) Human PI3K alpha enzyme assay method
as §4, §6

[3] = biological target: T3, Human PI3K delta (Homo sapiens, UniProt O00329); assay: Human PI3K delta enzyme assay (HTRF); conditions: concentration not given, b1389 states 1.0 μM for PI3K δ and γ; for inhibition at 1 µM: read-out: p110 delta Percent Inhibition
T3 construct: His (N); host or cells: SF9 insect cells (baculovirus)
From the text: as §1, §2, §3, §4, §5, §6

[4] = at a 1.1 μM concentration, read-out: PI3β Percent Inhibition
[5] = at a 1.1 μM concentration, read-out: PI3Kα Percent Inhibition

T3 sequence (O00329 whole entry): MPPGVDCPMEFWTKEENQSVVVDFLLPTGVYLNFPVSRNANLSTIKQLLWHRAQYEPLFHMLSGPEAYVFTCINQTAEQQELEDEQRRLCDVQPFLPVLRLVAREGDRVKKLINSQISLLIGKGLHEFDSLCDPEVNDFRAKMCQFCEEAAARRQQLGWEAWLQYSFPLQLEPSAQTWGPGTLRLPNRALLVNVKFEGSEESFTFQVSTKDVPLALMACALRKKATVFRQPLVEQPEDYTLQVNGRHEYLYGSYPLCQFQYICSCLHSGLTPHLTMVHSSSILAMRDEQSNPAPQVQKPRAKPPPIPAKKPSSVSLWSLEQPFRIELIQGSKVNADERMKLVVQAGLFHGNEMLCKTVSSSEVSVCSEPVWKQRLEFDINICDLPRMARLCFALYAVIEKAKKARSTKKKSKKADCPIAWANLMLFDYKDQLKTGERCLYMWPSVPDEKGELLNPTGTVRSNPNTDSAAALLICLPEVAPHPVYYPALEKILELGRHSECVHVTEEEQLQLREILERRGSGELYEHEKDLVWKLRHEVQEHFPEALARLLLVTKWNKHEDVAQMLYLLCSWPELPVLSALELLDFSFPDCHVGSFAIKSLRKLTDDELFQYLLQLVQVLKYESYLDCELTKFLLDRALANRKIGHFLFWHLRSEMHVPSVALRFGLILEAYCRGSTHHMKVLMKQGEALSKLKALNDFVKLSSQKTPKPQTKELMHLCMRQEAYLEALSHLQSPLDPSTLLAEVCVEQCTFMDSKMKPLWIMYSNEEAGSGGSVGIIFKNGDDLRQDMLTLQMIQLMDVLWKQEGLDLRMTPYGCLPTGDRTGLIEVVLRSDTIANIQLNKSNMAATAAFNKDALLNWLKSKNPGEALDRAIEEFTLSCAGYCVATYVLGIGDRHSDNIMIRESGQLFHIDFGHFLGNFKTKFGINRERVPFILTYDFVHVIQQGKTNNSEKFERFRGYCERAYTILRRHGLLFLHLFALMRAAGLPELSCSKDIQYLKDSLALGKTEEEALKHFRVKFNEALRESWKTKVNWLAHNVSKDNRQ
T3 sequence (P27986 whole entry partner): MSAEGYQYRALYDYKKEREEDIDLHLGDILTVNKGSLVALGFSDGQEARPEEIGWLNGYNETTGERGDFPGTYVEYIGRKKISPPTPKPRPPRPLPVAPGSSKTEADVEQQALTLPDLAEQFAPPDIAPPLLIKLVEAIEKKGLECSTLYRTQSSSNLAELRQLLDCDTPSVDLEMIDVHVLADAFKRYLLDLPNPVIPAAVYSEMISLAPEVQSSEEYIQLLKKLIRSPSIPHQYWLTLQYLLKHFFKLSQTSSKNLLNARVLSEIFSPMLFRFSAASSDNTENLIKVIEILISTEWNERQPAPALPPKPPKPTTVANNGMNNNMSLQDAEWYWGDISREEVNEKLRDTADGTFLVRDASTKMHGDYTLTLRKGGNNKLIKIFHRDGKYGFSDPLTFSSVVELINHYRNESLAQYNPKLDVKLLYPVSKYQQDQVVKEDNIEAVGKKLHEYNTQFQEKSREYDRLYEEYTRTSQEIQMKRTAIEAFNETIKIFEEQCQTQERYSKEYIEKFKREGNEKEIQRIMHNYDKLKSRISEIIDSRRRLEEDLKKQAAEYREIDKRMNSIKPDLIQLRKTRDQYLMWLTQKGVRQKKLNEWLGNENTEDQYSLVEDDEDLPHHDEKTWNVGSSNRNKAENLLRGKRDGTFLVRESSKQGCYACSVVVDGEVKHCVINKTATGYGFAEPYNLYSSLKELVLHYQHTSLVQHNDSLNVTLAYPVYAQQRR
T2 sequence (P42336 whole entry): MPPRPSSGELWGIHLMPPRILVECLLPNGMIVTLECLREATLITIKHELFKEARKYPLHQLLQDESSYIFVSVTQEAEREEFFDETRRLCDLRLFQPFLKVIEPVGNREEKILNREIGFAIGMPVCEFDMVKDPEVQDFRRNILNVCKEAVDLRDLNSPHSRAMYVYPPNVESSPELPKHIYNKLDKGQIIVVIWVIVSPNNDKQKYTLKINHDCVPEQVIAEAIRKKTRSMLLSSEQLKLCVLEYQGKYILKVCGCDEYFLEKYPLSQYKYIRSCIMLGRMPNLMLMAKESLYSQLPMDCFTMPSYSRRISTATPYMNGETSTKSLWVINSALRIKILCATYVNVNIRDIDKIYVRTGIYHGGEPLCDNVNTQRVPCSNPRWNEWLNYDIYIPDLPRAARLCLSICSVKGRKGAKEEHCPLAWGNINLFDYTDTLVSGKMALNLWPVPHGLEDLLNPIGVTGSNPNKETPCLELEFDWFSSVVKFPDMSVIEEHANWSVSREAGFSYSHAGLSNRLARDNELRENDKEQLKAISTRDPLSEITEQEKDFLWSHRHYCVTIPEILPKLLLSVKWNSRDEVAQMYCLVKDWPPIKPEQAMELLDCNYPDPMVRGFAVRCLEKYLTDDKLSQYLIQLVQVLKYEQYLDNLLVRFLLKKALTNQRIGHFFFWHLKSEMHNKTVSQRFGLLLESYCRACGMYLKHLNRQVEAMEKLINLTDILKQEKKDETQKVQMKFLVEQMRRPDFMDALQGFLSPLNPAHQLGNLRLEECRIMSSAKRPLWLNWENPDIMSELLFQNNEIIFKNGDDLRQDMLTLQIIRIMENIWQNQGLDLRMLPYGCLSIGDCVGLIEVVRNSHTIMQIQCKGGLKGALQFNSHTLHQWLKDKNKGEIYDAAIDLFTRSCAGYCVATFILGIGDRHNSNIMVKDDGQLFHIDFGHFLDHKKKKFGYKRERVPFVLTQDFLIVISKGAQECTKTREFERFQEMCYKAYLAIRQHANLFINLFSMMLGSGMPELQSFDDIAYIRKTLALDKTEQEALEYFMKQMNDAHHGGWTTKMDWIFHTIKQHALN
T2 sequence (P27986 whole entry partner): as the sequence (P27986 whole entry partner) above
T1 sequence (P42338 whole entry): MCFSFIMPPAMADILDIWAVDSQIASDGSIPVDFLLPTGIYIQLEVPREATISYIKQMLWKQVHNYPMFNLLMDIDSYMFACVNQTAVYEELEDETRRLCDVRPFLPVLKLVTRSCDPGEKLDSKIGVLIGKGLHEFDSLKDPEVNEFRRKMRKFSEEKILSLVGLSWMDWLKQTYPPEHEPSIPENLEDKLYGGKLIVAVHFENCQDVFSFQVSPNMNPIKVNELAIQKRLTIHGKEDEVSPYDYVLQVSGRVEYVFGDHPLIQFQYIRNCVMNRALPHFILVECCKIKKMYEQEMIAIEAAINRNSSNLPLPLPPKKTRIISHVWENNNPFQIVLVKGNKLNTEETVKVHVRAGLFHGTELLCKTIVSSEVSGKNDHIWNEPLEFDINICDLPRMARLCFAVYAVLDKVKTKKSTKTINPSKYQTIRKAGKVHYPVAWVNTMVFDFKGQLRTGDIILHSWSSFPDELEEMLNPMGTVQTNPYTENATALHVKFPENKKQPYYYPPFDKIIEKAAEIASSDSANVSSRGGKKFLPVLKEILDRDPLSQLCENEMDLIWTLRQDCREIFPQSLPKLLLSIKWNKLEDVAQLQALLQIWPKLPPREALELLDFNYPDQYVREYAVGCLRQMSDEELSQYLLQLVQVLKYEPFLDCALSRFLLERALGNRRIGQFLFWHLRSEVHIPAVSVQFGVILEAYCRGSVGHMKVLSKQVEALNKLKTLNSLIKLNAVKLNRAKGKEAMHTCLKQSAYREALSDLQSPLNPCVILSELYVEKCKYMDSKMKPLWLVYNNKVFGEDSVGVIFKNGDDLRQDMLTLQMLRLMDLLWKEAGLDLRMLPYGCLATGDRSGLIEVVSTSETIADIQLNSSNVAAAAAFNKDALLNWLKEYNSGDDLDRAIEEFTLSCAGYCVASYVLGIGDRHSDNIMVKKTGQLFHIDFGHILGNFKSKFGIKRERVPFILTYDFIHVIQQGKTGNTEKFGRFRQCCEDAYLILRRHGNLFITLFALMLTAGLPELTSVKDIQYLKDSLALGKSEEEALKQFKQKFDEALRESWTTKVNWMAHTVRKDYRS
T1 sequence (P27986 whole entry partner): as the sequence (P27986 whole entry partner) above

Structure (SMILES): N#Cc1c(-c2ccnnc2)sc(-c2nnc[nH]2)c1Cc1ccc(Cl)cc1 [Compound 89]
- IC50 [1]: 100 to 1000 nM
- IC50 [2]: > 1000 nM

Structure (SMILES): CC(=O)Nc1cc(-c2cc(C(c3ccc(Cl)cc3)N3CCC3)c(-c3nnc[nH]3)s2)ccn1 (stereo not shown) [Compound 90]
- IC50 [1]: < 100 nM
- IC50 [2]: 100 to 1000 nM

Structure (SMILES): O=c1ccnc(-c2sc(-c3ccncc3)nc2Cc2ccc(Cl)cc2)[nH]1 [Compound 92, 2-(4-(4-chlorobenzyl)-2-(pyridin-4-yl)thiazol-5-yl)pyrimidin-4(3H)-one]
- IC50 [1]: < 100 nM
- IC50 [2]: > 1000 nM

Structure (SMILES): O=C(O)c1sc(N2CCOCC2)nc1Cc1ccc(Cl)cc1F [Compound 101]
- inhibition at 1.1 µM [1, 4]: 105%
- inhibition at 1.1 µM [2, 5]: 30%

Structure (SMILES): O=C(O)c1sc(N2CCOCC2)nc1Cc1ccc2c(c1)OCCO2 [Compound 110, 4-(2,3-dihydro-1,4-benzodioxin-6-ylmethyl)-2-(morpholin-4-yl)-1,3-thiazole-5-carboxylic acid]
- inhibition at 1.1 µM [1, 4]: 41%
- inhibition at 1.1 µM [2, 5]: 5%

Structure (SMILES): CC(=O)Nc1cc(-c2cc(C(O)(c3ccc(Cl)cc3)C3CCN(C)CC3)c(-c3nnc[nH]3)s2)ccn1 (stereo not shown) [Compound 237, N-(4-{4-[(4-chlorophenyl)(hydroxy)(1-methylpiperidin-4-yl)methyl]-5-(4H-1,2,4-triazol-3-yl)-2-thienyl}pyridin-2-yl)acetamide]
- inhibition at 1.1 µM ([1]; concentration not given, b1387 states 1.1 μM for PI3K α and β, read-out: p110 beta Percent Inhibition): 89%
- inhibition at 1.1 µM ([2]; concentration not given, b1387 states 1.1 μM for PI3K α and β, read-out: p110 alpha Percent Inhibition): 61%

Structure (SMILES): N#Cc1c(N2CCOCC2)sc(C(=O)O)c1Cc1ccc2ccc(F)cc2c1 [Compound 287]
- inhibition at 1 µM [3]: 112%

Structure (SMILES): N#Cc1c(N2CCOCC2)sc(C(=O)O)c1Cc1ccc2ccccc2c1F [Compound 293]
- inhibition at 1 µM [3]: 110%

Structure (SMILES): N#Cc1c(N2CCOCC2)sc(C(=O)O)c1Cc1cc2ccccc2cc1F [Compound 295]
- inhibition at 1 µM [3]: 112%

Structure (SMILES): N#Cc1c(N2CCOCC2)sc(C(=O)O)c1Cc1cc(F)c(Cl)cc1F [Compound 300]
- inhibition at 1 µM [3]: 97%

Structure (SMILES): N#Cc1c(N2CCOCC2)sc(C(=O)O)c1Cc1ccc2c(c1)CCCC2 [Compound 305]
- inhibition at 1 µM [3]: 74%

Structure (SMILES): N#Cc1c(N2CCOCC2)sc(C(N)=O)c1C(F)(F)c1ccc2ccccc2c1 [Compound 307]
- inhibition at 1 µM [3]: 62%

Structure (SMILES): N#Cc1c(N2CCOCC2)sc(C(=O)O)c1C(F)(F)c1ccc2ccccc2c1 [Compound 308]
- inhibition at 1 µM [3]: 92%

Structure (SMILES): N#Cc1c(N2CCOCC2)sc(C(=O)O)c1Cc1cc(F)c2ccccc2c1 [Compound 324]
- inhibition at 1 µM [3]: 113%

Structure (SMILES): COC(c1ccc2ccccc2c1)c1c(C(=O)O)sc(N2CCOCC2)c1C#N (stereo not shown) [Compound 337]
- p110 delta Percent Inhibition [3]: 46%

Structure (SMILES): N#Cc1c(N2CCOCC2)sc(C(=O)O)c1Cc1ccc2c(F)cccc2c1 [Compound 343]
- inhibition at 1 µM [3]: 113%

Structure (SMILES): N#Cc1c(N2CCOCC2)sc(C(=O)O)c1C(F)c1ccc2ccccc2c1 (stereo not shown) [Compound 345]
- inhibition at 1 µM [3]: 83%
- p110 alpha Percent Inhibition ([2]; concentration not given, b1387 states 1.1 μM for PI3K α and β): 64%

Structure (SMILES): N#Cc1c(N2CCOCC2)sc(-c2nnn[nH]2)c1C(F)(F)c1ccc2ccccc2c1 [Compound 349]
- inhibition at 1 µM [3]: 96%
